Experimental data reported in the supplement of paper PMC4932681.
Where a name gives a salt, the structure may show the parent alone.

Legend:
T-47D Tam2 = assay: drug sensitivity score (DSS) (DSS (dimensionless)); higher = more sensitive; extreme values may be limits of the assay; conditions: 4-OH-tamoxifen in medium 1 µM; 72 h
Experimental: (§1)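 FIMM FO2B library drugs were tested at 5 concentrations (10,000-fold range) for 72 h, with CellTiter-Glo viability normalised to DMSO and benzethonium chloride controls. The Drug Sensitivity Score (DSS) is computed from the fitted logistic dose-response curve (area-based; 0 = inactive). Resistant lines and the 'in 1µM tamoxifen' arms were tested in 1 µM 4-OH-tamoxifen.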

MCF-7 Tam1 = assay: as above; conditions: 4-OH-tamoxifen in medium 1 µM; 72 h
Experimental: as §1

BT-474 Tam1 [1] = assay: as above; conditions: 4-OH-tamoxifen in medium 1 µM; 72 h
Experimental: as §1

ZR-75-1 [2] = assay: as above; conditions: 72 h
Experimental: as §1

BT-474 Tam2 [3] = assay: as above; conditions: 4-OH-tamoxifen in medium 1 µM; 72 h
Experimental: as §1

T-47D Tam1 [4] = assay: as above; conditions: 4-OH-tamoxifen in medium 1 µM; 72 h
Experimental: as §1

BT-474 [5] = assay: as above; conditions: 72 h
Experimental: as §1

ZR-75-1 Tam2 [6] = assay: as above; conditions: 4-OH-tamoxifen in medium 1 µM; 72 h
Experimental: as §1

T-47D [7] = assay: as above; conditions: 72 h
Experimental: as §1

ZR-75-1 Tam1 [8] = assay: as above; conditions: 4-OH-tamoxifen in medium 1 µM; 72 h
Experimental: as §1

MCF-7 [9] = assay: as above; conditions: 72 h
Experimental: as §1

ZR-75-1 [10] = assay: relative IC50 (midpoint of fitted logistic curve, plateau may be below 50% inhibition; CellTiter-Glo viability); higher = less potent; conditions: 72 h
Experimental: (§2)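 FIMM FO2B library drugs were plated at 5 concentrations spanning a 10,000-fold range in 384-well plates. Cells were incubated for 72 h at 37 °C and viability was read by CellTiter-Glo, normalised to DMSO (0% inhibition) and 100 µM benzethonium chloride (100% inhibition). IC50 values come from logistic dose-response fits (Breeze pipeline). Tamoxifen-resistant lines and the 'in 1µM tamoxifen' parental arms were tested in medium with 1 µM 4-OH-tamoxifen.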

BT-474 [11] = assay: as above; conditions: 72 h
Experimental: as §2

ZR-75-1 Tam2 [12] = assay: as above; conditions: 4-OH-tamoxifen in medium 1 µM; 72 h
Experimental: as §2

T-47D [13] = assay: as above; conditions: 72 h
Experimental: as §2

ZR-75-1 Tam1 [14] = assay: as above; conditions: 4-OH-tamoxifen in medium 1 µM; 72 h
Experimental: as §2

BT-474 Tam1 [15] = assay: as above; conditions: 4-OH-tamoxifen in medium 1 µM; 72 h
Experimental: as §2

BT-474 Tam2 [16] = assay: as above; conditions: 4-OH-tamoxifen in medium 1 µM; 72 h
Experimental: as §2

MCF-7 [17] = assay: as above; conditions: 72 h
Experimental: as §2

T-47D Tam1 [18] = assay: as above; conditions: 4-OH-tamoxifen in medium 1 µM; 72 h
Experimental: as §2

SMILES | drug sensitivity score (T-47D Tam2) | drug sensitivity score (MCF-7 Tam1) | drug sensitivity score (BT-474 Tam1 [1]) | drug sensitivity score (ZR-75-1 [2]; 4-OH-tamoxifen in medium 0 µM) | drug sensitivity score (ZR-75-1 [2]; 4-OH-tamoxifen in medium 1 µM) | drug sensitivity score (BT-474 Tam2 [3]) | drug sensitivity score (T-47D Tam1 [4]) | drug sensitivity score (BT-474 [5]; 4-OH-tamoxifen in medium 0 µM) | drug sensitivity score (BT-474 [5]; 4-OH-tamoxifen in medium 1 µM) | drug sensitivity score (ZR-75-1 Tam2 [6]) | drug sensitivity score (T-47D [7]; 4-OH-tamoxifen in medium 0 µM) | drug sensitivity score (T-47D [7]; 4-OH-tamoxifen in medium 1 µM) | drug sensitivity score (ZR-75-1 Tam1 [8]) | drug sensitivity score (MCF-7 [9]; 4-OH-tamoxifen in medium 0 µM) | drug sensitivity score (MCF-7 [9]; 4-OH-tamoxifen in medium 1 µM) | relative IC50 (ZR-75-1 [10]; 4-OH-tamoxifen in medium 0 µM) [µM] | relative IC50 (ZR-75-1 [10]; 4-OH-tamoxifen in medium 1 µM) [µM] | relative IC50 (BT-474 [11]; 4-OH-tamoxifen in medium 1 µM) [µM] | relative IC50 (ZR-75-1 Tam2 [12]) [µM] | relative IC50 (T-47D [13]; 4-OH-tamoxifen in medium 0 µM) [µM] | relative IC50 (T-47D [13]; 4-OH-tamoxifen in medium 1 µM) [µM] | relative IC50 (ZR-75-1 Tam1 [14]) [µM] | relative IC50 (BT-474 Tam1 [15]) [µM] | relative IC50 (BT-474 Tam2 [16]) [µM] | relative IC50 (BT-474 [11]; 4-OH-tamoxifen in medium 0 µM) [µM] | relative IC50 (MCF-7 [17]; 4-OH-tamoxifen in medium 0 µM) [µM] | relative IC50 (MCF-7 [17]; 4-OH-tamoxifen in medium 1 µM) [µM] | relative IC50 (T-47D Tam1 [18]) [µM]
CC(C)c1c(C(=O)Nc2ccccc2)c(-c2ccccc2)c(-c2ccc(F)cc2)n1CC[C@@H](O)C[C@@H](O)CC(=O)O [Atorvastatin] | 0.823 | 0 | 0.517 | 4.64 | 2.87 | 2.17 | 3.38 | 0.471 | 0 | 3.56 | 2.75 | 1.73 | 3.76 | 0.619 | 1.69 | 1.17 | 1.65 | > 10 | 1.43 | 1.82 | 3.21 | 1.72 |  |  |  |  |  | 
COc1cc2nccc(Oc3ccc(NC(=O)Nc4cc(C)on4)c(Cl)c3)c2cc1OC [Tivozanib  (AV-951)] | 0.444 | 0.0468 | 4.02 | 0.0461 | 0 | 1.74 | 0.968 | 1.25 | 3.61 | 0 | 0.499 | 0.378 | 0 | 0.0979 | 0.0672 |  | > 10 | 3.67 |  |  |  | > 10 | 3.12 | 3.91 | 3.57 |  |  | 
CC[C@H](CO)Nc1nc(NCc2ccccc2)c2ncn(C(C)C)c2n1 [Seliciclib (Roscovitine)] | 0.682 | 0.0488 | 0 | 0 | 0 | 0 | 4 | 0 | 0 | 0 | 0 | 0 | 0 | 0.816 | 0.217 | > 10 | > 10 | > 10 | > 10 | > 10 | > 10 | > 10 | > 10 | > 10 | > 10 |  |  | 
CC(=O)c1c(C)c2cnc(Nc3ccc(N4CCNCC4)cn3)nc2n(C2CCCC2)c1=O | 1.34 | 0.967 | 0 | 0 | 0.745 | 0 | 2.49 | 0 | 0 | 1.63 | 2.46 | 0 | 1.11 | 3.32 | 3.28 | > 10 |  | > 10 |  |  | > 10 |  |  | > 10 |  | 1.16 |  | 
CC(=O)Nc1cccc(-n2c(=O)n(C3CC3)c(=O)c3c(Nc4ccc(I)cc4F)n(C)c(=O)c(C)c32)c1 | 2.69 | 0.101 | 0 | 0 | 0 | 0 | 2.19 | 0 | 0.246 | 0 | 0 | 0.259 | 0 | 0 | 3.01 | > 0.25 | > 0.25 |  | > 0.25 | > 0.25 | > 0.25 | > 0.25 | > 0.25 | > 0.25 | > 0.25 | > 0.25 |  | 
C=CC[C@@H]1/C=C(\C)C[C@H](C)C[C@H](OC)[C@H]2O[C@@](O)(C(=O)C(=O)N3CCCC[C@H]3C(=O)O[C@H](/C(C)=C/[C@@H]3CC[C@@H](O)[C@H](OC)C3)[C@H](C)[C@@H](O)CC1=O)[C@H](C)C[C@@H]2OC [Tacrolimus (FK 506)] | 0.788 | 1.18 | 2.73 | 0 | 0.622 | 2.96 | 2.72 | 0 | 1.97 | 0.01 | 0 | 0 | 0.336 | 0.766 | 3.51 | > 10 |  | 3.13 |  | > 10 | > 10 |  | 2.79 | 1.41 | > 10 |  | 1.23 | 
CNC(=O)c1ccccc1Sc1ccc2c(/C=C/c3ccccn3)n[nH]c2c1 [Axitinib] | 0.968 | 1.84 | 2.01 | 0 | 0.656 | 1.5 | 1.41 | 0.518 | 3.56 | 1.49 | 2.18 | 0.979 | 0 | 1.43 | 2.88 | > 10 |  | 1.65 |  | 2.77 |  | > 10 | 3.25 |  |  | 3.32 | 1.48 | 
O=C(c1ccc(OCCN2CCCCC2)cc1)c1c(-c2ccc(O)cc2)sc2cc(O)ccc12 [Raloxifene  HCl] | 1.8 | 0.681 | 1.74 | 0.0043 | 0.0503 | 1.14 | 0.0352 | 0.75 | 2.42 | 0 | 0.0005 | 0 | 0 | 3.69 | 1.88 |  |  | 3.74 | > 10 |  | > 10 | > 10 | 4 | 4.22 |  | 0.553 | 2.65 | 
c1ccc2c(CCNc3ccc(Nc4ccncc4)cc3)c[nH]c2c1 | 0.542 | 0.0212 | 5.04 | 0.0538 | 0.973 | 1.44 | 0.685 | 0 | 3.42 | 1.69 | 0.192 | 0 | 0.823 | 2.88 | 0.416 |  |  | 3.98 | 2.76 |  | > 10 |  | 3.22 | 3.9 | > 10 | 3.72 |  | 
Cc1c(C(=O)Nc2ccc(N3C[C@@H](C)O[C@@H](C)C3)nc2)cccc1-c1ccc(OC(F)(F)F)cc1 [Erismodegib (NVP-LDE225)] | 1.05 | 0.695 | 0.226 | 0 | 0.747 | 1.6 | 0 | 0.627 | 1.78 | 0 | 0.587 | 0 | 0.271 | 0.927 | 0.267 | > 10 |  | 3.61 | > 10 |  | > 10 |  |  |  |  |  |  | > 10
S=c1[nH]cnc2nc[nH]c12 [Mercaptopurine] | 0 | 0.313 | 0 | 3.86 | 0 | 0 | 0.0158 | 0 | 1.43 | 1.17 | 0 | 0 | 3.2 | 0.509 | 2.88 | 1.17 |  |  |  | > 10 | > 10 | 1.27 | > 10 | > 10 | > 10 |  |  | 
Nc1ccccc1NC(=O)c1ccc(CNC(=O)OCc2cccnc2)cc1 [Entinostat] | 0.0349 | 0 | 3.73 | 1.19 | 0 | 3.18 | 5.11 | 3.08 | 4.39 | 0.992 | 2.94 | 1.33 | 1.06 | 3.59 | 1.94 | 3.96 |  | 3.39 |  | 3.89 | 3.99 |  | 3.73 | 2.81 | 3.44 | 2.99 | 3.28 | 1.82
CO[C@H]1C[C@@H]2CC[C@@H](C)[C@@](O)(O2)C(=O)C(=O)N2CCCC[C@H]2C(=O)O[C@H]([C@H](C)C[C@@H]2CC[C@@H](OCCO)[C@H](OC)C2)CC(=O)[C@H](C)/C=C(\C)[C@@H](O)[C@@H](OC)C(=O)[C@H](C)C[C@H](C)/C=C/C=C/C=C/1C [Everolimus] | 3.34 | 0.336 | 1.16 | 8.05 | 4.22 | 2.18 | 4.62 | 7.06 | 0.135 | 9.02 | 5.82 | 2.41 | 4.45 | 11.6 | 8.24 | 0.00127 | 0.00347 |  | 0.00123 |  |  | 0.00352 |  |  |  | 0.00104 | 0.000952 | 
COc1cc(OC2CCN(C)CC2)ccc1Nc1ncc2c(n1)n(C1CCCC1)c(=O)n2C [AZ 3146] | 0.886 | 0.007 | 3.57 | 0.724 | 0.0431 | 0.781 | 0 | 0 | 7.15 | 0.671 | 1.1 | 0.111 | 0.233 | 0.951 | 0.135 |  |  | 1.59 |  |  |  |  | 3.66 |  | > 10 |  |  | > 10
Cn1cnc2c(F)c(Nc3ccc(Br)cc3F)c(C(=O)NOCCO)cc21 [MEK-162 (ARRY-162)] | 0.511 | 0 | 0 | 0 | 0 | 0 | 3.1 | 0 | 1.07 | 0 | 0 | 0 | 0 | 0.0194 | 1.02 | > 1 | > 1 |  | > 1 | > 1 | > 1 | > 1 | > 1 | > 1 | > 1 |  |  | 
COc1ccc(C2=N[C@@H](c3ccc(Cl)cc3)[C@@H](c3ccc(Cl)cc3)N2C(=O)N2CCNC(=O)C2)c(OC(C)C)c1 [Nutlin-3] | 0.429 | 0.214 | 1.52 | 1.96 | 2.65 | 2.34 | 0.605 | 0 | 0.0005 | 4.17 | 0 | 0 | 2.29 | 2.64 | 3.36 | 2.79 |  |  | 1.35 | > 10 | > 10 | 1.9 | 3.21 |  | > 10 |  | 2.08 | 
COc1cc2c(Oc3ccc(NC(=O)C4(C(=O)Nc5ccc(F)cc5)CC4)cc3F)ccnc2cc1OCCCN1CCOCC1 [Foretinib (Foretinib)] | 1.36 | 1.72 | 1.42 | 0 | 0 | 0.0003 | 0.595 | 0 | 1.73 | 0.585 | 0.41 | 0.227 | 0 | 0.867 | 0.0297 | > 1 |  | 0.404 |  |  |  |  | 0.314 |  | > 1 |  |  | 
